SMILES strings stand for the structures.

In the test the target is T1, human GPR119 (Homo sapiens, UniProt Q8TDV5).
T1 construct: expressed in transfected cells
T1 sequence (Q8TDV5 1-335): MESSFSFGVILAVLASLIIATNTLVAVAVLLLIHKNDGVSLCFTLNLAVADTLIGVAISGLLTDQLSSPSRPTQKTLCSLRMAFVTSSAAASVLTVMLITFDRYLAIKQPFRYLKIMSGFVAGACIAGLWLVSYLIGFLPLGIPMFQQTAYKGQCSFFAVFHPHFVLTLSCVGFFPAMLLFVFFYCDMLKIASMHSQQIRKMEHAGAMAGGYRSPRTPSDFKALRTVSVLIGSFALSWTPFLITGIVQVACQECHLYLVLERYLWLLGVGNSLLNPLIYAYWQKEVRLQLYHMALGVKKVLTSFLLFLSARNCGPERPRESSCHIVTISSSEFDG
Put plainly: Functional cellular assay measuring GPR119-mediated cAMP release (HTRF) in HEK-293 cells stably expressing recombinant GPR119. It is filed as cell-based. The conditions noted are these: cAMP response, cell line expressing human GPR119 (HEK-293), 30 minutes at room temperature. As to the method:
Functional Cellular Assays Measuring GPR119-Mediated cAMP Release
Compounds of the invention, which are agonists of GPR119, were characterized by functional assays measuring the cAMP response of HEK-293 cell lines stably expressing recombinant GPR119 from man, mouse or rat, or by using a hamster cell line HIT-T15 expressing GPR119 endogenously. The cAMP content was determined using a kit based on homogenous time-resolved fluorescence (HTRF) from Cisbio Corp. (cat. no. 62AM4PEC). For preparation, cells were split into T175 culture flasks and grown to near confluency in medium (DMEM/10% FCS for HEK-293 cells, and F-12K medium/10% horse serum/2.5% FCS for HIT-T15 cells, respectively). Medium was then removed and cells washed with PBS lacking calcium and magnesium ions, followed by proteinase treatment with accutase (Sigma-Aldrich, cat. no. A6964). Detached cells were washed and resuspended in assay buffer (1×HBSS; 20 mM HEPES, 0.1% BSA, 2 mM IBMX) and cellular density determined. They were then diluted to 400000 cells/mL and 25 μL-aliquots dispensed to the wells of 96-well plates. For measurement, 25 μL of test compound in assay buffer was added and incubated for 30 minutes at room temperature. After addition of HTRF reagents diluted in lysis buffer, the plates were incubated for 1 hour, followed by measuring the fluorescence ratio at 665 vs. 620 nm. Potency of the agonists was quantified by determining the concentrations that caused 50% of the maximal response/activation (EC50). See Table 3 for exemplary data obtained using the cell line expressing human GPR119.
`CN(C)C(=O)Cn1nc2c(F)cc(N3CC[C@@H](Oc4ccc(C(=O)CC5CC5)cc4)C3=O)cn2c1=O` [Example 1-13, 2-[6-[(3R)-3-[4-(2-cyclopropylacetyl)phenoxy]-2-oxo-pyrrolidin-1-yl]-8-fluoro-3-oxo-[1,2,4]triazolo[4,3-a]pyridin-2-yl]-N,N-dimethyl-acetamide]: the EC50 (in general, the midpoint of the concentration-response curve) was determined as 179 nM. As to `O=C1[C@H](Oc2ccc(OCC3CC3)nc2)CCN1c1ccc2n[nH]c(=O)n2c1` [Example 1-14, 6-[(3R)-3-[[6-(cyclopropylmethoxy)-3-pyridyl]oxy]-2-oxo-pyrrolidin-1-yl]-2H-[1,2,4]triazolo[4,3-a]pyridin-3-one], the concentration for a half-maximal effect (EC50) stood at 701 nM.

Consider `COC(=O)Cn1cc2ccc(N3CC[C@@H](Oc4ccc(OCC5CC5)nc4)C3=O)cc2n1` [Example 1-15, methyl 2-[6-[(3R)-3-[[6-(cyclopropylmethoxy)-3-pyridyl]oxy]-2-oxo-pyrrolidin-1-yl]indazol-2-yl]acetate], for which the concentration for a half-maximal effect (EC50) came out at 924 nM.

Turning to `O=C(O)Cn1cc2ccc(N3CC[C@@H](Oc4ccc(OCC5CC5)nc4)C3=O)cc2n1` [Example 1-16, 2-[6-[(3R)-3-[[6-(cyclopropylmethoxy)-3-pyridyl]oxy]-2-oxo-pyrrolidin-1-yl]indazol-2-yl]acetic acid], the EC50 was found to be 12000 nM. `O=C(O)Cn1nc2ccc(N3CC[C@@H](Oc4ccc(OCC5CC5)nc4)C3=O)cc2n1` [Example 1-17, 2-[5-[(3R)-3-[[6-(cyclopropylmethoxy)-3-pyridyl]oxy]-2-oxo-pyrrolidin-1-yl]benzotriazol-2-yl]acetic acid]: the EC50 is 2110 nM. To `COC(=O)Cn1nc2ccc(N3CC[C@@H](Oc4ccc(OCC5CC5)nc4)C3=O)cc2n1` [Example 1-18, methyl 2-[5-[(3R)-3-[[6-(cyclopropylmethoxy)-3-pyridyl]oxy]-2-oxo-pyrrolidin-1-yl]benzotriazol-2-yl]acetate] belongs 34 nM; to `O=C(O)Cc1cn2cc(N3CC[C@@H](Oc4ccc(OCC5CC5)nc4)C3=O)ccc2n1` [Example 1-19, 2-[6-[(3R)-3-[[6-(cyclopropylmethoxy)-3-pyridyl]oxy]-2-oxo-pyrrolidin-1-yl]imidazo[1,2-a]pyridin-2-yl]acetic acid], over 100000 nM. Take `COC(=O)Cc1cn2cc(N3CC[C@@H](Oc4ccc(OCC5CC5)nc4)C3=O)ccc2n1` [Example 1-20, methyl 2-[6-[(3R)-3-[[6-(cyclopropylmethoxy)-3-pyridyl]oxy]-2-oxo-pyrrolidin-1-yl]imidazo[1,2-a]pyridin-2-yl]acetate]: the EC50 is 9920 nM. The value for `Cn1nc2ccc(N3CC[C@@H](Oc4ccc(OCC5CC5)nc4)C3=O)cc2n1` [Example 1-21, (3R)-3-[[6-(cyclopropylmethoxy)-3-pyridyl]oxy]-1-(2-methylbenzotriazol-5-yl)pyrrolidin-2-one] was 2050 nM; that for `CN(C)C(=O)Cn1nc2cc(N3CC[C@@H](Oc4ccc(OCC5CC5)nc4)C3=O)cc(F)c2n1` [Example 1-22, 2-[6-[(3R)-3-[[6-(cyclopropylmethoxy)-3-pyridyl]oxy]-2-oxo-pyrrolidin-1-yl]-4-fluorobenzotriazol-2-yl]-N,N-dimethyl-acetamide] was 182 nM; that for `Cn1nc2ccc(N3CC[C@@H](Oc4ccc(OCC5CC5)nc4)C3=O)cn2c1=O` [Example 1-23, 6-[(3R)-3-[[6-(cyclopropylmethoxy)-3-pyridyl]oxy]-2-oxo-pyrrolidin-1-yl]-2-methyl-[1,2,4]triazolo[4,3-a]pyridin-3-one] was 4200 nM. The value for `O=C(O)Cn1nc2ccc(N3CC[C@@H](Oc4ccc(OCC5CC5)nc4)C3=O)cn2c1=O` [Example 1-24, 2-[6-[(3R)-3-[[6-(cyclopropylmethoxy)-3-pyridyl]oxy]-2-oxo-pyrrolidin-1-yl]-3-oxo-[1,2,4]triazolo[4,3-a]pyridin-2-yl]acetic acid] was 6170 nM; that for `O=C1[C@H](Oc2ccc(OCC3CC3)nc2)CCN1c1cc(F)c2n[nH]c(=O)n2c1` [Example 1-25, 6-[(3R)-3-[[6-(cyclopropylmethoxy)-3-pyridyl]oxy]-2-oxo-pyrrolidin-1-yl]-8-fluoro-2H-[1,2,4]triazolo[4,3-a]pyridin-3-one] was 249 nM; that for `COC(=O)Cn1nc2ccc(N3CC[C@@H](Oc4ccc(OCC5CC5)nc4)C3=O)cn2c1=O` [Example 1-26, methyl 2-[6-[(3R)-3-[[6-(cyclopropylmethoxy)-3-pyridyl]oxy]-2-oxo-pyrrolidin-1-yl]-3-oxo-[1,2,4]triazolo[4,3-a]pyridin-2-yl]acetate] was 113 nM. To `Cn1nc2c(F)cc(N3CC[C@@H](Oc4ccc(OCC5CC5)nc4)C3=O)cn2c1=O` [Example 1-27, 6-[(3R)-3-[[6-(cyclopropylmethoxy)-3-pyridyl]oxy]-2-oxo-pyrrolidin-1-yl]-8-fluoro-2-methyl-[1,2,4]triazolo[4,3-a]pyridin-3-one] belongs 1870 nM; to `COC(=O)Cn1nc2c(F)cc(N3CC[C@@H](Oc4ccc(OCC5CC5)nc4)C3=O)cn2c1=O` [Example 1-28, methyl 2-[6-[(3R)-3-[[6-(cyclopropylmethoxy)-3-pyridyl]oxy]-2-oxo-pyrrolidin-1-yl]-8-fluoro-3-oxo-[1,2,4]triazolo[4,3-a]pyridin-2-yl]acetate], 70 nM; to `CN(C)C(=O)Cn1nc2ccc(N3CC[C@@H](Oc4ccc(OCC(F)(F)F)nc4)C3=O)cn2c1=O` [Example 1-30, N,N-dimethyl-2-[3-oxo-6-[(3R)-2-oxo-3-[[6-(2,2,2-trifluoroethoxy)-3-pyridyl]oxy]pyrrolidin-1-yl]-[1,2,4]triazolo[4,3-a]pyridin-2-yl]acetamide], 203 nM. With `CS(=O)(=O)Cn1nc2ccc(N3CC[C@@H](Oc4ccc(Oc5ccc(F)cc5)nc4)C3=O)cn2c1=O` [Example 1-31, 6-[(3R)-3-[[6-(4-fluorophenoxy)-3-pyridyl]oxy]-2-oxo-pyrrolidin-1-yl]-2-(methylsulfonylmethyl)-[1,2,4]triazolo[4,3-a]pyridin-3-one], the EC50 worked out at 365 nM.

Regarding `CS(=O)(=O)Cn1nc2ccc(N3CC[C@@H](Oc4ccc(C(=O)C5CC5)cc4)C3=O)cn2c1=O` [Example 1-32, 6-[(3R)-3-[4-(cyclopropanecarbonyl)phenoxy]-2-oxo-pyrrolidin-1-yl]-2-(methylsulfonylmethyl)-[1,2,4]triazolo[4,3-a]pyridin-3-one], the EC50 was 196 nM. The value for `CS(=O)(=O)Cn1nc2ccc(N3CC[C@@H](Oc4ccc(OCC(F)(F)F)nc4)C3=O)cn2c1=O` [Example 1-33, 2-(methylsulfonylmethyl)-6-[(3R)-2-oxo-3-[[6-(2,2,2-trifluoroethoxy)-3-pyridyl]oxy]pyrrolidin-1-yl]-[1,2,4]triazolo[4,3-a]pyridin-3-one] was 113 nM; that for `CN(C)C(=O)Cn1cc2cc(N3CC[C@@H](Oc4ccc(OCC(F)(F)F)nc4)C3=O)ccc2n1` [Example 1-34, N,N-dimethyl-2-[5-[(3R)-2-oxo-3-[[6-(2,2,2-trifluoroethoxy)-3-pyridyl]oxy]pyrrolidin-1-yl]indazol-2-yl]acetamide] was 103 nM. As for `CN(C)C(=O)Cn1nc2c(F)cc(N3CC[C@@H](Oc4ccc(OCC5CC5)nc4)C3=O)cn2c1=O` [Example 2-01, 2-[6-[(3R)-3-[[6-(cyclopropylmethoxy)-3-pyridyl]oxy]-2-oxo-pyrrolidin-1-yl]-8-fluoro-3-oxo-[1,2,4]triazolo[4,3-a]pyridin-2-yl]-N,N-dimethyl-acetamide], the EC50 was 126 nM.

In the case of `O=C(Cn1nc2c(F)cc(N3CC[C@@H](Oc4ccc(OCC5CC5)nc4)C3=O)cn2c1=O)NC1CC1` [Example 2-02, N-cyclopropyl-2-[6-[(3R)-3-[[6-(cyclopropylmethoxy)-3-pyridyl]oxy]-2-oxo-pyrrolidin-1-yl]-8-fluoro-3-oxo-[1,2,4]triazolo[4,3-a]pyridin-2-yl]acetamide], the EC50 came to 123 nM. To `CN(C)C(=O)Cn1nc2ccc(N3CC[C@@H](Oc4ccc(OCC5CC5)nc4)C3=O)cc2n1` [Example 2-03, 2-[5-[(3R)-3-[[6-(cyclopropylmethoxy)-3-pyridyl]oxy]-2-oxo-pyrrolidin-1-yl]benzotriazol-2-yl]-N,N-dimethyl-acetamide] belongs 127 nM. To `O=C(Cn1nc2ccc(N3CC[C@@H](Oc4ccc(OCC5CC5)nc4)C3=O)cc2n1)NCCO` [Example 2-04, 2-[5-[(3R)-3-[[6-(cyclopropylmethoxy)-3-pyridyl]oxy]-2-oxo-pyrrolidin-1-yl]benzotriazol-2-yl]-N-(2-hydroxyethyl)acetamide] belongs 343 nM.

Values taken from US9758520B2, “Substituted fused heterocycles as GPR119 modulators for the treatment of diabetes, obesity, dyslipidemia and related disorders” (SANOFI, priority 2014, dated 2017).
